Measured values as given in ChEMBL document CHEMBL3885881, “DrugMatrix”.

Species on record: Rattus norvegicus
Experiment: DrugMatrix - Regimen: Daily Repeat
Format: toxicity, organism-based, Sprague-Dawley
Design: regimen Daily Repeat, gender Male, age 6-8 weeks
Conditions: in vivo, sc, route subcutaneous, […]; for ABSOLUTE BASOPHIL / ABSOLUTE EOSINOPHIL / ABSOLUTE LYMPHOCYTE / ABSOLUTE MONOCYTE / ABSOLUTE SEGMENTED NEUTROPHIL / BASOPHIL / EOSINOPHIL / ERYTHROCYTE COUNT / HEMATOCRIT / HEMOGLOBIN / LEUKOCYTE COUNT / LYMPHOCYTE / MEAN CORPUSCULAR HEMOGLOBIN / MEAN CORPUSCULAR HEMOGLOBIN CONCENTRATION / MEAN CORPUSCULAR VOLUME / MONOCYTE / NEUTROPHIL / NUCLEATED RED BLOOD CELLS / PLATELET COUNT: tissue Blood; for ALANINE AMINOTRANSFERASE / ALBUMIN / ALKALINE PHOSPHATASE / ASPARTATE AMINOTRANSFERASE / BLOOD UREA NITROGEN / CARBON DIOXIDE / CHLORIDE / CHOLESTEROL / CREATINE PHOSPHOKINASE / CREATININE / GLUCOSE / LACTATE DEHYDROGENASE / LIPASE / PHOSPHORUS / POTASSIUM / SODIUM / TOTAL BILIRUBIN / TOTAL PROTEIN / URIC ACID: tissue Plasma
[1] = 150 mg/kg, 120 h, dose level High, time 5 day
[2] = 72 h, dose 2.8 mg/Kg, dose level Low, time 3 day
[3] = 120 h, dose 2.8 mg/Kg, dose level Low, time 5 day

CN(Cc1ccc(C(C)(C)C)cc1)Cc1cccc2ccccc12 [BUTENAFINE]
ABSOLUTE BASOPHIL [1]: 0 CELLS/uL | ABSOLUTE EOSINOPHIL [1]: 60.33 CELLS/uL | ABSOLUTE LYMPHOCYTE [1]: 7925.67 CELLS/uL | ABSOLUTE MONOCYTE [1]: 152 CELLS/uL | ABSOLUTE SEGMENTED NEUTROPHIL [1]: 1062 CELLS/uL | BASOPHIL [1]: 0% | EOSINOPHIL [1]: 1% | ERYTHROCYTE COUNT [1]: 5.24 x10E6/uL | HEMATOCRIT [1]: 32.57% | HEMOGLOBIN [1]: 12.97 G/DL | LEUKOCYTE COUNT [1]: 9.2 x10E3/uL | LYMPHOCYTE [1]: 85.67% | MEAN CORPUSCULAR HEMOGLOBIN [1]: 24.87 pg | MEAN CORPUSCULAR HEMOGLOBIN CONCENTRATION [1]: 39.93 G/DL | MEAN CORPUSCULAR VOLUME [1]: 62.17 fL | MONOCYTE [1]: 1.33% | NEUTROPHIL [1]: 12% | NUCLEATED RED BLOOD CELLS [1]: 0 /100WBC | PLATELET COUNT [1]: 984.33 x10E3/uL | ALANINE AMINOTRANSFERASE [1]: 52 u/L | ALBUMIN [1]: 4.67 G/DL | ALKALINE PHOSPHATASE [1]: 373 u/L | ASPARTATE AMINOTRANSFERASE [1]: 90 u/L | BLOOD UREA NITROGEN [1]: 15.33 mg/dL | CARBON DIOXIDE [1]: 31.33 mmol/L | CHLORIDE [1]: 100.33 MEQ/L | CHOLESTEROL [1]: 54 mg/dL | CREATINE PHOSPHOKINASE [1]: 434 u/L | CREATININE [1]: 0.24 mg/dL | GLUCOSE [1]: 159.67 mg/dL | LACTATE DEHYDROGENASE [1]: 385.67 u/L | LIPASE [1]: 12.33 u/L | PHOSPHORUS [1]: 15.13 mg/dL | POTASSIUM [1]: 6.75 MEQ/L | SODIUM [1]: 146.63 MEQ/L | TOTAL BILIRUBIN [1]: 0.3 mg/dL | TOTAL PROTEIN [1]: 6.5 G/DL | URIC ACID [1]: 2.2 mg/dL | ABSOLUTE BASOPHIL [2]: 0 CELLS/uL | ABSOLUTE EOSINOPHIL [2]: 44.33 CELLS/uL | ABSOLUTE LYMPHOCYTE [2]: 13110.67 CELLS/uL | ABSOLUTE MONOCYTE [2]: 225.33 CELLS/uL | ABSOLUTE SEGMENTED NEUTROPHIL [2]: 1586.33 CELLS/uL | BASOPHIL [2]: 0% | EOSINOPHIL [2]: 0.33% | ERYTHROCYTE COUNT [2]: 5.44 x10E6/uL | HEMATOCRIT [2]: 35.13% | HEMOGLOBIN [2]: 13.83 G/DL | LEUKOCYTE COUNT [2]: 14.97 x10E3/uL | LYMPHOCYTE [2]: 87.33% | MEAN CORPUSCULAR HEMOGLOBIN [2]: 25.4 pg | MEAN CORPUSCULAR HEMOGLOBIN CONCENTRATION [2]: 39.37 G/DL | MEAN CORPUSCULAR VOLUME [2]: 64.57 fL | MONOCYTE [2]: 1.33% | NEUTROPHIL [2]: 11% | NUCLEATED RED BLOOD CELLS [2]: 0 /100WBC | PLATELET COUNT [2]: 1247.33 x10E3/uL | ALANINE AMINOTRANSFERASE [2]: 51.67 u/L | ALBUMIN [2]: 4.23 G/DL | ALKALINE PHOSPHATASE [2]: 485 u/L | ASPARTATE AMINOTRANSFERASE [2]: 87 u/L | BLOOD UREA NITROGEN [2]: 14.67 mg/dL | CARBON DIOXIDE [2]: 28.67 mmol/L | CHLORIDE [2]: 102 MEQ/L | CHOLESTEROL [2]: 81 mg/dL | CREATINE PHOSPHOKINASE [2]: 255.33 u/L | CREATININE [2]: 0.2 mg/dL | GLUCOSE [2]: 140.33 mg/dL | LACTATE DEHYDROGENASE [2]: 340.33 u/L | LIPASE [2]: 9.67 u/L | PHOSPHORUS [2]: 12.73 mg/dL | POTASSIUM [2]: 7.04 MEQ/L | SODIUM [2]: 146.23 MEQ/L | TOTAL BILIRUBIN [2]: 0.23 mg/dL | TOTAL PROTEIN [2]: 6.03 G/DL | URIC ACID [2]: 1.43 mg/dL | ABSOLUTE BASOPHIL [3]: 0 CELLS/uL | ABSOLUTE EOSINOPHIL [3]: 0 CELLS/uL | ABSOLUTE LYMPHOCYTE [3]: 12003.67 CELLS/uL | ABSOLUTE MONOCYTE [3]: 90 CELLS/uL | ABSOLUTE SEGMENTED NEUTROPHIL [3]: 1073 CELLS/uL | BASOPHIL [3]: 0% | EOSINOPHIL [3]: 0% | ERYTHROCYTE COUNT [3]: 5.4 x10E6/uL | HEMATOCRIT [3]: 34.57% | HEMOGLOBIN [3]: 13.8 G/DL | LEUKOCYTE COUNT [3]: 13.17 x10E3/uL | LYMPHOCYTE [3]: 91% | MEAN CORPUSCULAR HEMOGLOBIN [3]: 25.6 pg | MEAN CORPUSCULAR HEMOGLOBIN CONCENTRATION [3]: 39.97 G/DL | MEAN CORPUSCULAR VOLUME [3]: 64 fL | MONOCYTE [3]: 0.67% | NEUTROPHIL [3]: 8.33% | NUCLEATED RED BLOOD CELLS [3]: 0 /100WBC | PLATELET COUNT [3]: 1261 x10E3/uL | ALANINE AMINOTRANSFERASE [3]: 42.67 u/L | ALBUMIN [3]: 4.27 G/DL | ALKALINE PHOSPHATASE [3]: 339.33 u/L | ASPARTATE AMINOTRANSFERASE [3]: 85.33 u/L | BLOOD UREA NITROGEN [3]: 16.67 mg/dL | CARBON DIOXIDE [3]: 32.67 mmol/L | CHLORIDE [3]: 104.67 MEQ/L | CHOLESTEROL [3]: 68.33 mg/dL | CREATINE PHOSPHOKINASE [3]: 102 u/L | CREATININE [3]: 0.21 mg/dL | GLUCOSE [3]: 147.67 mg/dL | LACTATE DEHYDROGENASE [3]: 96.33 u/L | LIPASE [3]: 8.67 u/L | PHOSPHORUS [3]: 14.27 mg/dL | POTASSIUM [3]: 7.04 MEQ/L | SODIUM [3]: 150.5 MEQ/L | TOTAL BILIRUBIN [3]: 0.2 mg/dL | TOTAL PROTEIN [3]: 6.33 G/DL | URIC ACID [3]: 1.7 mg/dL
